From PMC8443589, “Modelling human liver fibrosis in the context of non-alcoholic steatohepatitis using a microphysiological system” (Communications Biology, 2021)

How the values were obtained:
Assay type in all cases: cell-based, human
[1] = test system: liver MPS NASH model (PHH, KC and HSC co-cultures); experiment: Cue study: secreted cytokines and chemokines (Luminex) with varying NPC number and added cues (Fig 5a, 5b)
Text: There is only limited understanding of the pathogenic drivers of NASH and their interaction, principally due to a lack of translational models that are amenable to detailed molecular analysis[2],[34]. Here, a systems biology ‘cue-signal-analysis’ paradigm[35],[36] was utilised to produce large factorial datasets to enable the identification of molecular pathways of importance. […] To create varying set ups of the NASH microtissues we created hepatocyte microtissues in the MPS with high numbers of NPC (60,000 KC and HSC—equivalent to 10% of microtissue population) and low numbers of NPCs (6000 KC and HSC—equivalent to 1% of microtissue), representing physiological and non-physiological cell ratios respectively. Next, we took these different microtissues and cultured them in media with or without FFA. Finally, we supplemented the media with lipopolysaccharide (LPS), TGFβ, fructose or cholesterol either as single ‘cues’, in pairs or all together (Fig. 4a). ‘Cues’ were selected for clinical association with NASH. LPS, is a pleiotropic inflammatory molecule, it is proposed to reach the liver via the hepatic portal vein after release from the gastrointestinal tract, contributing to disease progression[37],[38]. TGFβ has been extensively studied in relation to fibrosis due to its regulation of genes controlling collagen and matrix-modifying enzymes. Fructose is a key substrate for de-novo lipogenesis, a process that has been identified as a key event in lipid accumulation within NAFLD patients. Finally, cholesterol accumulation has also been linked to NASH disease aetiology.
Assessment of gene expression changes was supplemented by assessment of the secretome produced by NASH microtissues in the MPS after exposure to the various cues. Increased pro-inflammatory cytokine secretion is a defining characteristic in NASH patients, so we conducted a Luminex cytokine array covering 42 different biomarkers, cytokines and chemokines secreted into the culture media of the different microtissues at multiple time points. […]

[2] = test system: liver MPS NASH model (PHH, KC and HSC co-cultures); experiment: Cue study: pro-fibrotic biomarkers TIMP-1, pro-collagen 1, fibronectin (Fig 5c); conditions: fat medium + cue
Text: Assessment of gene expression changes was supplemented by assessment of the secretome produced by NASH microtissues in the MPS after exposure to the various cues. Increased pro-inflammatory cytokine secretion is a defining characteristic in NASH patients, so we conducted a Luminex cytokine array covering 42 different biomarkers, cytokines and chemokines secreted into the culture media of the different microtissues at multiple time points. We consistently detected 27 out of the 42 biomarkers and observed that there was differential expression of cytokines and chemokines driven by the different cues applied to the micro-tissue (Fig. 5a, b). The LPS cue and the presence of higher NPC numbers were responsible for driving the largest increase in cytokine and chemokine release, with the largest increases in cytokines measured on day 14 (Fig. 5b). […] Similarly, to the cytokine production, these changes were not further enhanced by combining cues, as all the cue combinations containing TGFβ had the highest expression (Supp. Fig. 17c).
Fig. 5 Systems biology interrogation of liver MPS NASH model to determine physiologically relevant cues that promote soluble biomarker changes to mimic advanced NASH disease state. PHH, KC and HSC co-cultures were cultured in the MPS platform under a variety of conditions for 14 days to test number of NPCs, presence of fat, fructose, cholesterol, LPS and TGFβ for effects on the soluble biomarker profile of the liver MPS NASH model. Expression of biomarkers, cytokines and chemokines were compared, all concentrations were normalised by Z-transformation to allow comparison and shown relative to mean for each marker (white = not detected). a Cytokine expression compared with varying levels of NPCs; b for the high NPC group in the presence of additional cues; c Expression of pro-fibrotic biomarkers with varying NPC content and with additional varying cues in high NPC condition (additional data in Supp. Fig. 17). d Graphical summary of the changes that occur in the NASH model in the presence of Fat and Fat + TGFβ. All data were generated from a minimum of three independent replicate samples per condition.
The MPS LC12 plates consists of 12 individual bioreactors that contain pneumatically driven micro-pumps to recirculate cell culture medium through a collagen-coated scaffold. Cells were cultured using the protocol previously described[20],[21], but briefly, PHH were seeded at a density of 6 × 10^5 viable cells per well on the LC12 plates with each NPC population (KC and/or HSC) at a density of 6 × 10^4 viable cells per well. Each well contained a final volume of 1.6 mL of medium per well and maintained under a flow rate of 1.0 µL/s. Cells were seeded in Williams E medium containing primary hepatocyte thawing and plating supplements (Life Technologies, USA) and cultured initially under downward flow for 8 h before the flow was automatically reversed to upward flow for the next 16 h of culture. Microtissues were then cultured in either HEP-Lean or HEP-Fat medium, both media’s are proprietary to CN Bio Innovations Ltd. The HEP-Fat medium is a derivative of the HEP-LEAN medium and contains a mixture of saturated and unsaturated FFAs, as well as physiologically relevant quantities of insulin and sugars. Complete media changes were performed on all wells every 48–72 h. For certain experiments, the media was supplemented with additional additives from day 4 onwards: 1 ng/ml LPS (lipopolysaccharides from Escherichia coli O111:B4) (Sigma Aldrich, UK), 1 ng/ml recombinant TGF beta 1 protein (Abcam, UK); 500 µM Fructose (Sigma Aldrich, UK), 50 µg/ml Cholesterol (Sigma Aldrich, UK). […]

[3] = test system: liver MPS NASH model (PHH, KC and HSC co-cultures); experiment: Cue study: albumin production (ELISA)

Structure (SMILES): CC(C)CCC[C@@H](C)[C@H]1CC[C@H]2[C@@H]3CC=C4C[C@@H](O)CC[C@]4(C)[C@H]3CC[C@]12C [Cholesterol]
- EGF relative expression (z-transformation) ([1]; Day 6, Fat media + cue): -2.017
- Eotaxin relative expression (z-transformation) ([1]; Day 6, Fat media + cue): -0.7967
- FGF-2 relative expression (z-transformation) ([1]; Day 6, Fat media + cue): -0.2249
- Fit-3L relative expression (z-transformation) ([1]; Day 6, Fat media + cue): -1.968
- Fractalkine relative expression (z-transformation) ([1]; Day 6, Fat media + cue): -1.501
- G-CSF relative expression (z-transformation) ([1]; Day 6, Fat media + cue): -0.1828
- GM-CSF relative expression (z-transformation) ([1]; Day 6, Fat media + cue): -0.6958
- GRO relative expression (z-transformation) ([1]; Day 6, Fat media + cue): -0.8479
- IFN-a2 relative expression (z-transformation) ([1]; Day 6, Fat media + cue): -1.086
- IL-1RA relative expression (z-transformation) ([1]; Day 6, Fat media + cue): -1.579
- IL-4 relative expression (z-transformation) ([1]; Day 6, Fat media + cue): -1.537
- IL-6 relative expression (z-transformation) ([1]; Day 6, Fat media + cue): -0.8492
- IL-7 relative expression (z-transformation) ([1]; Day 6, Fat media + cue): -1.138
- IL-8 relative expression (z-transformation) ([1]; Day 6, Fat media + cue): -1.037
- IL-15 relative expression (z-transformation) ([1]; Day 6, Fat media + cue): -1.447
- IP-10 relative expression (z-transformation) ([1]; Day 6, Fat media + cue): -1.086
- MCP-1 relative expression (z-transformation) ([1]; Day 6, Fat media + cue): -1.585
- MCP-3 relative expression (z-transformation) ([1]; Day 6, Fat media + cue): -1.263
- MDC relative expression (z-transformation) ([1]; Day 6, Fat media + cue): -0.4545
- MIP-1a relative expression (z-transformation) ([1]; Day 6, Fat media + cue): -0.7293
- MIP-1b relative expression (z-transformation) ([1]; Day 6, Fat media + cue): -0.9104
- TNFa relative expression (z-transformation) ([1]; Day 6, Fat media + cue): -0.774
- VEGF relative expression (z-transformation) ([1]; Day 6, Fat media + cue): -0.01821
- EGF relative expression (z-transformation) ([1]; Day 11, Fat media + cue): 1.504
- Eotaxin relative expression (z-transformation) ([1]; Day 11, Fat media + cue): -0.8044
- FGF-2 relative expression (z-transformation) ([1]; Day 11, Fat media + cue): 0.794
- Fractalkine relative expression (z-transformation) ([1]; Day 11, Fat media + cue): -1.145
- G-CSF relative expression (z-transformation) ([1]; Day 11, Fat media + cue): -0.8882
- GRO relative expression (z-transformation) ([1]; Day 11, Fat media + cue): -1.084
- IFN-a2 relative expression (z-transformation) ([1]; Day 11, Fat media + cue): -0.9638
- IL-1RA relative expression (z-transformation) ([1]; Day 11, Fat media + cue): -1.623
- IL-4 relative expression (z-transformation) ([1]; Day 11, Fat media + cue): -1.08
- IL-6 relative expression (z-transformation) ([1]; Day 11, Fat media + cue): -0.9589
- IL-7 relative expression (z-transformation) ([1]; Day 11, Fat media + cue): -0.957
- IL-8 relative expression (z-transformation) ([1]; Day 11, Fat media + cue): -1.364
- IL-15 relative expression (z-transformation) ([1]; Day 11, Fat media + cue): -1.997
- IP-10 relative expression (z-transformation) ([1]; Day 11, Fat media + cue): -1.199
- MCP-1 relative expression (z-transformation) ([1]; Day 11, Fat media + cue): -2.479
- MCP-3 relative expression (z-transformation) ([1]; Day 11, Fat media + cue): -1.098
- MDC relative expression (z-transformation) ([1]; Day 11, Fat media + cue): -1.98
- MIP-1a relative expression (z-transformation) ([1]; Day 11, Fat media + cue): -0.8147
- MIP-1b relative expression (z-transformation) ([1]; Day 11, Fat media + cue): -0.9274
- VEGF relative expression (z-transformation) ([1]; Day 11, Fat media + cue): -1.0705
- Eotaxin relative expression (z-transformation) ([1]; Day 14, Fat media + cue): -0.1613
- FGF-2 relative expression (z-transformation) ([1]; Day 14, Fat media + cue): -0.6319
- Fractalkine relative expression (z-transformation) ([1]; Day 14, Fat media + cue): -0.3551
- G-CSF relative expression (z-transformation) ([1]; Day 14, Fat media + cue): -1.591
- GM-CSF relative expression (z-transformation) ([1]; Day 14, Fat media + cue): -1.001
- GRO relative expression (z-transformation) ([1]; Day 14, Fat media + cue): -0.8633
- IFN-a2 relative expression (z-transformation) ([1]; Day 14, Fat media + cue): -1.669
- IL-1RA relative expression (z-transformation) ([1]; Day 14, Fat media + cue): -1.544
- IL-4 relative expression (z-transformation) ([1]; Day 14, Fat media + cue): -1.577
- IL-6 relative expression (z-transformation) ([1]; Day 14, Fat media + cue): -0.7817
- IL-7 relative expression (z-transformation) ([1]; Day 14, Fat media + cue): -1.113
- IL-8 relative expression (z-transformation) ([1]; Day 14, Fat media + cue): -1.061
- IL-15 relative expression (z-transformation) ([1]; Day 14, Fat media + cue): -1.074
- IP-10 relative expression (z-transformation) ([1]; Day 14, Fat media + cue): -0.9907
- MCP-1 relative expression (z-transformation) ([1]; Day 14, Fat media + cue): -1.142
- MCP-3 relative expression (z-transformation) ([1]; Day 14, Fat media + cue): -1.036
- MDC relative expression (z-transformation) ([1]; Day 14, Fat media + cue): -1.936
- MIP-1a relative expression (z-transformation) ([1]; Day 14, Fat media + cue): -0.7839
- MIP-1b relative expression (z-transformation) ([1]; Day 14, Fat media + cue): -0.9403
- TNFa relative expression (z-transformation) ([1]; Day 14, Fat media + cue): -0.8637
- VEGF relative expression (z-transformation) ([1]; Day 14, Fat media + cue): 3.004
- TNFα ([1]; day 14): greatest increase
- Fibronectin (Fold change in cytokine production compared to control) ([2]; Day 6, high NPC): 0.5839
- Pro-collagen 1 (Fold change in cytokine production compared to control) ([2]; Day 6, high NPC): -0.1232
- TIMP-1 (Fold change in cytokine production compared to control) ([2]; Day 6, high NPC): -0.5668
- Fibronectin (Fold change in cytokine production compared to control) ([2]; Day 11, high NPC): 0.3927
- Pro-collagen 1 (Fold change in cytokine production compared to control) ([2]; Day 11, high NPC): 0.4365
- TIMP-1 (Fold change in cytokine production compared to control) ([2]; Day 11, high NPC): -0.1305
- Fibronectin (Fold change in cytokine production compared to control) ([2]; Day 14, high NPC): -0.4332
- Pro-collagen 1 (Fold change in cytokine production compared to control) ([2]; Day 14, high NPC): 0.3527
- TIMP-1 (Fold change in cytokine production compared to control) ([2]; Day 14, high NPC): -0.3247
- Albumin production [3]: to a lesser extent
